Assay results as given in US20060069132A1, “Azolecarboxamide herbicides” (priority 2004, published 2006).

Assays:
large crabgrass = assay: Test B pre-/postemergence herbicide test; type: in vivo, Digitaria sanguinalis; conditions: for Crabgrass, Large plant response rating: postemergence, scale 0 (no effect) to 100 (complete control)
In short: (§1)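 Test chemicals in a non-phytotoxic solvent mixture with surfactant were applied preemergence to seeded species and postemergence to plants 2-18 cm tall (1- to 4-leaf stage); rice and barnyardgrass were also tested in a flooded paddy at the 2-leaf stage. Visual rating versus controls after 13-15 days in greenhouse, scale 0 (no effect) to 100 (complete control).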

pigweed = assay: Test B pre-/postemergence herbicide test; type: in vivo, Amaranthus retroflexus; conditions: for Pigweed plant response rating: postemergence, scale 0 (no effect) to 100 (complete control)
In short: as §1

barnyardgrass [1] = assay: Test B pre-/postemergence herbicide test; type: in vivo, Echinochloa crus-galli; conditions: for Barnyardgrass plant response rating: postemergence, scale 0 (no effect) to 100 (complete control)
In short: (§2)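 Formulation: non-phytotoxic solvent mix with surfactant. Timing: preemergence on seed and postemergence on 2–18 cm plants, applied concurrently. Readout after 13–15 d greenhouse: visual 0–100 control rating against controls.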

wheat = assay: Test B postemergence herbicide test; type: in vivo, Triticum aestivum; design: key to Wheat plant response rating: 0 = no effect, 100 = complete control; conditions: postemergence, visual rating, scale 0 (no effect) to 100 (complete control)
In short: (§3)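 Read-out: visual comparison with controls, scored 0 to 100, where 100 means complete control and 0 no effect. Formulated chemicals were applied postemergence to plants 2–18 cm tall (1- to 4-leaf), or to flooded-paddy plants at the 2-leaf stage, then held 13 to 15 days under glass.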

blackgrass = assay: Test B postemergence herbicide test; type: in vivo, Alopecurus myosuroides; conditions: postemergence, visual rating, scale 0 (no effect) to 100 (complete control)
In short: (§4)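 Scale 0–100: zero equals no visible effect, 100 complete control, judged by eye relative to controls. Timing: 13 to 15 days in greenhouse post-treatment. Growth stage at spraying: two leaves (paddy) or one to four leaves, 2–18 cm (postemergence).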

Surinam grass = assay: Test B pre-/postemergence herbicide test; type: in vivo, Urochloa decumbens; conditions: for Surinam Grass plant response rating: postemergence, scale 0 (no effect) to 100 (complete control)
In short: as §1

lambsquarters = assay: Test B pre-/postemergence herbicide test; type: in vivo, Chenopodium album; conditions: for Lambsquarters plant response rating: postemergence, scale 0 (no effect) to 100 (complete control)
In short: as §1

rice [2] = assay: Test B flooded paddy test; type: in vivo, Oryza sativa; conditions: 1000 g ai/ha, scale 0 to 100 (0 no effect, 100 complete control)
In short: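 Paddy species grown to the 2-leaf stage under flooding; blackgrass sprayed postemergence at 2–18 cm (1- to 4-leaf stage). Plants kept in a greenhouse for 13 to 15 days, then visually rated against controls on 0 (no effect) to 100 (complete control).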

barnyardgrass [3] = assay: Test B flooded paddy test; type: in vivo, Echinochloa crus-galli; conditions: 1000 g ai/ha, scale 0 to 100 (0 no effect, 100 complete control)
In short: as §4

corn = assay: Test B pre-/postemergence herbicide test; type: in vivo, Zea mays; conditions: for Corn plant response rating: postemergence, scale 0 (no effect) to 100 (complete control)
In short: as §1

ducksalad = assay: Test B flooded paddy test; type: in vivo, Heteranthera limosa; conditions: 1000 g ai/ha, scale 0 to 100 (0 no effect, 100 complete control)
In short: as §4

rice [4] = assay: Test B pre-/postemergence herbicide test; type: in vivo, Oryza sativa; conditions: 0 = no effect, 100 = complete control, preemergence
In short: as §1

[5] = test system: small flower umbrella sedge; assay: Test B flooded paddy test; type: in vivo, Cyperus difformis; conditions: 1000 g ai/ha, scale 0 to 100 (0 no effect, 100 complete control)
In short: as §4

wild oat = assay: Test B postemergence herbicide test; type: in vivo, Avena fatua; conditions: postemergence, visual rating, scale 0 (no effect) to 100 (complete control)
In short: as §3

giant foxtail = assay: Test B pre-/postemergence herbicide test; type: in vivo, Setaria faberi; conditions: for Foxtail, Giant plant response rating: postemergence, scale 0 (no effect) to 100 (complete control)
In short: as §1

cocklebur = assay: Test B pre-/postemergence herbicide test; type: in vivo, Xanthium strumarium; conditions: for Cocklebur plant response rating: postemergence, scale 0 (no effect) to 100 (complete control)
In short: as §2

velvetleaf = assay: Test B pre-/postemergence herbicide test; type: in vivo, Abutilon theophrasti; conditions: for Velvetleaf plant response rating: postemergence, scale 0 (no effect) to 100 (complete control)
In short: as §1

morningglory = assay: Test B pre-/postemergence herbicide test; type: in vivo, Ipomoea coccinea; conditions: for Morningglory plant response rating: postemergence, scale 0 (no effect) to 100 (complete control)
In short: as §2

[6] = 125 g ai/ha, 0 = no effect, 100 = complete control, preemergence
[7] = 500 g ai/ha, visual rating, 0 = no effect, 100 = complete control, preemergence

CCOC(=O)c1ccnc(NC(=O)c2cn(C(C)(C)C)nc2CC)c1 [Compound 238]
Crabgrass, Large plant response rating (0 to 100 scale) (large crabgrass; [6]): 0
Plant response rating, Crabgrass, Large (large crabgrass; [7]): 0
Crabgrass, Large plant response rating (large crabgrass; 125 g ai/ha, visual rating): 0
Crabgrass, Large plant response rating (large crabgrass; 500 g ai/ha, visual rating): 0
Pigweed plant response rating (0 to 100 scale) (pigweed; [6]): 0
Plant response rating, Pigweed (pigweed; [7]): 0
Pigweed plant response rating (pigweed; 125 g ai/ha, visual rating): 0
Pigweed plant response rating (pigweed; 500 g ai/ha, visual rating): 0
Barnyardgrass plant response rating (0 to 100 scale) (barnyardgrass [1]; [6]): 0
Plant response rating, Barnyardgrass (barnyardgrass [1]; [7]): 0
Barnyardgrass plant response rating (barnyardgrass [1]; 125 g ai/ha, visual rating): 0
Barnyardgrass plant response rating (barnyardgrass [1]; 500 g ai/ha, visual rating): 0
Wheat plant response rating (wheat; 125 g ai/ha): 0
Wheat plant response rating (wheat; 500 g ai/ha): 20
Blackgrass plant response rating (blackgrass; 125 g ai/ha): 0
Blackgrass plant response rating (blackgrass; 500 g ai/ha): 10
Surinam Grass plant response rating (0 to 100 scale) (Surinam grass; [6]): 0
Plant response rating, Surinam Grass (Surinam grass; [7]): 0
Surinam Grass plant response rating (Surinam grass; 125 g ai/ha, visual rating): 0
Surinam Grass plant response rating (Surinam grass; 500 g ai/ha, visual rating): 0
Lambsquarters plant response rating (0 to 100 scale) (lambsquarters; [6]): 0
Plant response rating, Lambsquarters (lambsquarters; [7]): 0
Lambsquarters plant response rating (lambsquarters; 125 g ai/ha, visual rating): 0
Lambsquarters plant response rating (lambsquarters; 500 g ai/ha, visual rating): 0
Rice plant response rating (rice [2]): 30
Barnyardgrass plant response rating (barnyardgrass [3]): 10
Corn plant response rating (0 to 100 scale) (corn; [6]): 0
Plant response rating, Corn (corn; [7]): 0
Corn plant response rating (corn; 125 g ai/ha, visual rating): 0
Corn plant response rating (corn; 500 g ai/ha, visual rating): 0
Ducksalad plant response rating (ducksalad): 0
Rice plant response rating (0 to 100 scale) (rice [4]; 125 g ai/ha): 0
Plant response rating, Rice (rice [4]; 500 g ai/ha, visual rating): 0
Sedge, Umbrella plant response rating [5]: 80
Oat, Wild plant response rating (wild oat; 125 g ai/ha): 0
Oat, Wild plant response rating (wild oat; 500 g ai/ha): 10
Foxtail, Giant plant response rating (0 to 100 scale) (giant foxtail; [6]): 0
Plant response rating, Foxtail, Giant (giant foxtail; [7]): 0
Foxtail, Giant plant response rating (giant foxtail; 125 g ai/ha, visual rating): 0
Foxtail, Giant plant response rating (giant foxtail; 500 g ai/ha, visual rating): 0
Cocklebur plant response rating (0 to 100 scale) (cocklebur; [6]): 0
Plant response rating, Cocklebur (cocklebur; [7]): 0
Cocklebur plant response rating (cocklebur; 125 g ai/ha, visual rating): 0
Cocklebur plant response rating (cocklebur; 500 g ai/ha, visual rating): 20
Velvetleaf plant response rating (0 to 100 scale) (velvetleaf; [6]): 0
Plant response rating, Velvetleaf (velvetleaf; [7]): 0
Velvetleaf plant response rating (velvetleaf; 125 g ai/ha, visual rating): 0
Velvetleaf plant response rating (velvetleaf; 500 g ai/ha, visual rating): 10
Morningglory plant response rating (0 to 100 scale) (morningglory; [6]): 0
Plant response rating, Morningglory (morningglory; [7]): 0
Morningglory plant response rating (morningglory; 125 g ai/ha, visual rating): 0
Morningglory plant response rating (morningglory; 500 g ai/ha, visual rating): 0
